Numbered stars: 1 amine (or outer) side, 2 acyl side, 3 side chain; on linkers, the order of the positions; unused ones are H or OH. Side chains are listed from the residue outwards. Peptide text beside a SMILES is read from it. * marks the point of attachment. C20 diacid = O=C(O)CCCCCCCCCCCCCCCCCCC(=O)*; γGlu = O=C(O)[C@H](CCC(=O)[*:2])N[*:1]
Legend:
[1] = target: T1, Calcitonin receptor (Homo sapiens, UniProt P30988); experiment: Agonist activity at human calcitonin receptor expressed in BHK570 cells assessed as increase in intracellular cAMP concentration incubated for 3 hrs in absence of albumin by CRE luciferase reporter gene assay; assay type: functional, cell-based
T1 sequence (P30988 whole entry): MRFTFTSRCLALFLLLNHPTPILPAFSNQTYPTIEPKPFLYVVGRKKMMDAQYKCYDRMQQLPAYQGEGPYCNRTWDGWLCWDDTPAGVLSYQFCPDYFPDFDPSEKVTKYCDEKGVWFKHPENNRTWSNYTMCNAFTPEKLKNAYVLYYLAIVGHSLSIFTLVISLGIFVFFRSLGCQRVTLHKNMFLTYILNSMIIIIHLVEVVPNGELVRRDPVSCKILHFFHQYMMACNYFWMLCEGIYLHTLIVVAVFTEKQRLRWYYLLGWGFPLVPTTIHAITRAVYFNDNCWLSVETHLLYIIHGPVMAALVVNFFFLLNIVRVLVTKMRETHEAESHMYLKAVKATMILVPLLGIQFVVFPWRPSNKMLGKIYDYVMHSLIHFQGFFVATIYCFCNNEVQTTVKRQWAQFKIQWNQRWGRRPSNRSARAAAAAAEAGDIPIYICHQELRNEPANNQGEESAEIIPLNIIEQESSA

[2] = target: T2, Amylin receptor AMY3; CALCR/RAMP3 (Homo sapiens, UniProt O60896+P30988); experiment: Agonist activity at human amylin receptor expressed in BHK570 cells co-expressing RAMP3 assessed as increase in intracellular cAMP concentration incubated for 3 hrs in presence of 10% FBS by CRE luciferase reporter gene assay; assay type: functional, cell-based
T2 sequence (P30988 whole entry): T1 sequence (P30988 whole entry)
T2 sequence (O60896 whole entry): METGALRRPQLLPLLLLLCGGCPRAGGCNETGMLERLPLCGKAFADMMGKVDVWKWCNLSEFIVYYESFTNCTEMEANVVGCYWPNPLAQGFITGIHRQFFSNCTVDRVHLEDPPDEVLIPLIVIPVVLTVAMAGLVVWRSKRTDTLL

[3] = Solubility in 100 mM bistrispropane buffer at pH 7.0 incubated for 18 hrs by UPLC analysis; assay type: physicochemical
[4] = Solubility in 100 mM bistrispropane buffer at pH 6.0 incubated for 18 hrs by UPLC analysis; assay type: physicochemical
[5] = target: T3, Amylin receptor AMY3; CALCR/RAMP3 (Rattus norvegicus, UniProt P32214+Q9JJ73); experiment: Displacement of [125I]-labeled rat amylin from rat amylin receptor expressed in BHK tkts13 cell membranes co-expressing RAMP3 incubated for 120 mins by scintillation proximity assay
T3 sequence (P32214 whole entry): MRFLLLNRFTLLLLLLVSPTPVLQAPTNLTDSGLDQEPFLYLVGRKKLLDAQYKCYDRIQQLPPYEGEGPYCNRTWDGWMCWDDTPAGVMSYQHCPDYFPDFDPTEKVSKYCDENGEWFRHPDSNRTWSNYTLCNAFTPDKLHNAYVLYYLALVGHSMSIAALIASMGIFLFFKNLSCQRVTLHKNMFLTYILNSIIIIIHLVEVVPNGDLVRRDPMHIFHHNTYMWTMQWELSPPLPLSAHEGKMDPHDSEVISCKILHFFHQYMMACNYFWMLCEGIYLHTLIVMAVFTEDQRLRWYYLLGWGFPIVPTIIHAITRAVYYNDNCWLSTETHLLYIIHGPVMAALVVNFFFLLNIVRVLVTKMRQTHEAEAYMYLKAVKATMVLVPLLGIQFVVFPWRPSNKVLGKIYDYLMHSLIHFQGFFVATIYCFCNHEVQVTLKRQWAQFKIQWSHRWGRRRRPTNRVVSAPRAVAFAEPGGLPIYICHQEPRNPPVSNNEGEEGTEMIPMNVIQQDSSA
T3 sequence (Q9JJ73 whole entry): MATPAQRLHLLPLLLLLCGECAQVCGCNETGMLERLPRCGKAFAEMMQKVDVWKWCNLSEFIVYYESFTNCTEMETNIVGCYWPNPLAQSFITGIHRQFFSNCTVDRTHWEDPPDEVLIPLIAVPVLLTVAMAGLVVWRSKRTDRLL

[6] = target: T2, Amylin receptor AMY3; CALCR/RAMP3; experiment: Agonist activity at human amylin receptor expressed in BHK570 cells co-expressing RAMP3 assessed as increase in intracellular cAMP concentration incubated for 3 hrs in absence of albumin by CRE luciferase reporter gene assay; assay type: functional, cell-based
[7] = Stability in pH 7.5 buffer assessed as lag time for fibril formation at 1 uM by Thioflavin T based fluorescence assay; assay type: physicochemical; settings: pH 7.5, 1 µM
[8] = target: T1, Calcitonin receptor; experiment: Agonist activity at human calcitonin receptor expressed in BHK570 cells assessed as increase in intracellular cAMP concentration incubated for 3 hrs in presence of 10% FBS by CRE luciferase reporter gene assay; assay type: functional, cell-based
[9] = Solubility in 100 mM glycylglycine buffer at pH 5.0 incubated for 18 hrs by UPLC analysis; assay type: physicochemical
[10] = Solubility in 100 mM glycylglycine buffer at pH 4.0 incubated for 18 hrs by UPLC analysis; assay type: physicochemical
[11] = Solubility in 100 mM glycylglycine buffer at pH 3.0 incubated for 18 hrs by UPLC analysis; assay type: physicochemical
[12] = Solubility in 100 mM bistrispropane buffer at pH 8.0 incubated for 18 hrs by UPLC analysis; assay type: physicochemical
[13] = Stability in pH 7.5 buffer assessed as compound recovery at 1 uM by Thioflavin T based fluorescence assay; assay type: physicochemical; settings: read-out: Drug recovery
[14] = Solubility in 100 mM bistrispropane buffer at pH 7.5 incubated for 18 hrs by UPLC analysis; assay type: physicochemical
[15] = Solubility in 100 mM bistrispropane buffer at pH 6.5 incubated for 18 hrs by UPLC analysis; assay type: physicochemical
[16] = tested on: Rattus norvegicus; experiment: Reduction in food intake in Sprague-Dawley rat at 3 nmol/kg measured 24 to 48 hrs post dose relative to control; assay type: functional; set-up: scale not given: the % may be the effect or the level left
[17] = tested on: Rattus norvegicus; experiment: Reduction in food intake in Sprague-Dawley rat at 3 nmol/kg measured 0 to 24 hrs post dose relative to control; assay type: functional; set-up: scale not given: the % may be the effect or the level left

EC50 [1] [nM] | EC50 [2] [nM] | solubility at 18 h [3] [µM] | solubility at 18 h [4] [µM] | IC50 [5] [nM] | EC50 [6] [nM] | Time [7] [h] | EC50 [8] [nM] | solubility at 18 h [9] [µM] | solubility at 18 h [10] [µM] | solubility at 18 h [11] [µM] | solubility at 18 h [12] [µM] | remaining at 1 µM [13] [%] | solubility at 18 h [14] [µM] | solubility at 18 h [15] [µM] | Compound | Activity [16] [%] | Activity [17] [%]
0.031 | 0.057 | ≥ 200 | ≥ 200 | 1.3 | 0.022 | > 45 | 0.048 | ≥ 200 | ≥ 200 | ≥ 200 | ≥ 200 | 100 | ≥ 200 | ≥ 200 | CC(C)C[C@H](NC(=O)[C@H](C)NC(=O)[C@H](C)NC(=O)[C@@H](NC(=O)[C@H](CO)NC(=O)[C@H](CC(C)C)NC(=O)[C@H](CCC(=O)O)NC(=O)[C@H](CO)NC(=O)[C@H](C)N)[C@@H](C)O)C(=O)NCC(=O)N[C@@H](CCCNC(=N)N)C(=O)N[C@@H](CC(C)C)C(=O)N[C@@H](CO)C(=O)N[C@@H](C)C(=O)N[C@@H](CCCCNC(=O)CC[C@H](NC(=O)CCCCCCCCCCCCCCCCCCC(=O)O)C(=O)O)C(=O)N[C@@H](CC(C)C)C(=O)N[C@@H](Cc1cnc[nH]1)C(=O)N[C@@H](CCC(=O)O)C(=O)N[C@@H](CC(C)C)C(=O)N[C@@H](C)C(=O)N[C@H](C(=O)N[C@@H](CC(C)C)C(=O)N1CCC[C@H]1C(=O)N[C@@H](CCCNC(=N)N)C(=O)N[C@H](C(=O)N[C@@H](CCC(=O)O)C(=O)N[C@H](C(=O)NCC(=O)N[C@@H](CO)C(=O)NCC(=O)N[C@@H](CO)C(=O)N1CCC[C@H]1C(N)=O)[C@@H](C)O)[C@@H](C)O)[C@@H](C)O (H-ASELSTAALGRLSAK([γGlu-C20 diacid])LHELATLPRTETGSGSP-NH2) | – | –
0.014 | 0.051 | ≥ 200 | ≥ 200 | – | 0.013 | > 45 | 0.029 | ≥ 200 | ≥ 200 | ≥ 200 | ≥ 200 | 100 | ≥ 200 | ≥ 200 | CC(C)C[C@H](NC(=O)[C@H](C)NC(=O)[C@H](C)NC(=O)[C@@H](NC(=O)[C@H](CO)NC(=O)[C@H](CC(C)C)NC(=O)[C@H](CCC(=O)O)NC(=O)[C@H](CO)NC(=O)[C@H](C)NC(=O)CC[C@H](NC(=O)CCCCCCCCCCCCCCCCCCC(=O)O)C(=O)O)[C@@H](C)O)C(=O)NCC(=O)N[C@@H](CCCNC(=N)N)C(=O)N[C@@H](CC(C)C)C(=O)N[C@@H](CO)C(=O)N[C@@H](C)C(=O)N[C@@H](CCC(=O)O)C(=O)N[C@@H](CC(C)C)C(=O)N[C@@H](Cc1cnc[nH]1)C(=O)N[C@@H](CCC(=O)O)C(=O)N[C@@H](CC(C)C)C(=O)N[C@@H](C)C(=O)N[C@H](C(=O)N[C@@H](CC(C)C)C(=O)N1CCC[C@H]1C(=O)N[C@@H](CCCNC(=N)N)C(=O)N[C@H](C(=O)N[C@@H](CCC(=O)O)C(=O)N[C@H](C(=O)NCC(=O)N[C@@H](CO)C(=O)NCC(=O)N[C@@H](CO)C(=O)N1CCC[C@H]1C(N)=O)[C@@H](C)O)[C@@H](C)O)[C@@H](C)O ({C20 diacid-γGlu}-ASELSTAALGRLSAELHELATLPRTETGSGSP-NH2) | 79 | 49
0.028 | 0.066 | ≥ 200 | ≥ 200 | – | 0.047 | > 45 | 0.035 | ≥ 200 | ≥ 200 | ≥ 200 | ≥ 200 | 100 | ≥ 200 | ≥ 200 | CC(C)C[C@H](NC(=O)CNC(=O)[C@H](CO)NC(=O)[C@H](C)NC(=O)CC[C@H](NC(=O)CCCCCCCCCCCCCCCCCCC(=O)O)C(=O)O)C(=O)N[C@@H](CO)C(=O)N[C@H](C(=O)N[C@@H](C)C(=O)N[C@H](C(=O)N[C@@H](CC(C)C)C(=O)NCC(=O)N[C@@H](CCCNC(=N)N)C(=O)N[C@@H](CC(C)C)C(=O)N[C@@H](CO)C(=O)N[C@@H](C)C(=O)N[C@@H](CCC(=O)O)C(=O)N[C@@H](CC(C)C)C(=O)N[C@@H](Cc1cnc[nH]1)C(=O)N[C@@H](CCC(=O)O)C(=O)N[C@@H](CC(C)C)C(=O)N[C@@H](C)C(=O)N[C@H](C(=O)N[C@@H](Cc1ccc(O)cc1)C(=O)N1CCC[C@H]1C(=O)N[C@@H](CCCNC(=N)N)C(=O)N[C@H](C(=O)N[C@@H](CCC(=O)O)C(=O)N[C@H](C(=O)NCC(=O)N[C@@H](CO)C(=O)NCC(=O)N[C@H](C(=O)N1CCC[C@H]1C(N)=O)[C@@H](C)O)[C@@H](C)O)[C@@H](C)O)[C@@H](C)O)C(C)C)[C@@H](C)O ({C20 diacid-γGlu}-ASGLSTAVLGRLSAELHELATYPRTETGSGTP-NH2) | 57 | 52
0.057 | 0.152 | ≥ 200 | ≥ 200 | – | – | > 45 | 0.072 | ≥ 200 | – | ≥ 200 | ≥ 200 | 100 | ≥ 200 | ≥ 200 | CC(C)C[C@H](NC(=O)CNC(=O)[C@H](CO)NC(=O)[C@H](C)NC(=O)CC[C@H](NC(=O)CCCCCCCCCCCCCCCCCCC(=O)O)C(=O)O)C(=O)N[C@@H](CO)C(=O)N[C@H](C(=O)N[C@@H](C)C(=O)N[C@H](C(=O)N[C@@H](CC(C)C)C(=O)NCC(=O)N[C@@H](CCCNC(=N)N)C(=O)N[C@@H](CC(C)C)C(=O)N[C@@H](CO)C(=O)N[C@@H](CCC(N)=O)C(=O)N[C@@H](CCC(=O)O)C(=O)N[C@@H](CC(C)C)C(=O)N[C@@H](Cc1cnc[nH]1)C(=O)N[C@@H](CCC(=O)O)C(=O)N[C@@H](CC(C)C)C(=O)N[C@@H](CCC(N)=O)C(=O)N[C@H](C(=O)N[C@@H](Cc1ccc(O)cc1)C(=O)N1CCC[C@H]1C(=O)N1CCC[C@H]1C(=O)N[C@H](C(=O)N[C@@H](CCC(=O)O)C(=O)N[C@H](C(=O)NCC(=O)N[C@@H](CO)C(=O)N[C@@H](CCC(N)=O)C(=O)N[C@H](C(=O)N[C@@H](Cc1ccc(O)cc1)C(N)=O)[C@@H](C)O)[C@@H](C)O)[C@@H](C)O)[C@@H](C)O)C(C)C)[C@@H](C)O ({C20 diacid-γGlu}-ASGLSTAVLGRLSQELHELQTYPPTETGSQTY-NH2) | 5 | 9

— ChEMBL document CHEMBL4420076, “Amylin and calcitonin receptor agonist” (2017)
